According to patent publication US20030207933A1, “Compositions and methods for increasing the sensitivity of apoptosis-resistant tumor cells to inducers of apoptosis” (priority 2002, published 2003):

Tests used:
HL-60 cells = experiment: Subcellular distribution of W-188 in HL-60 cells (absorbance at 380 nm); format: in vitro ADME, human
Experimental: (§1) A method to measure the subcellular localization of this compound was developed by the inventors of the present invention. Because of its distinctive absorbance spectrum, W-188 can be detected in cell and tissue extracts by measuring absorbance at 380 nm, and quantitated relative to a standard curve constructed with known amounts of W-188. HL-60 and PW cells containing vector control or overexpressing Bcl-2 were incubated with W-188 followed by cell lysis and isolation of nuclei, mitochondria, and cytotol by differential centrifugation.
(§2) Furthermore, it can be seen that nuclei and mitochondria from cells overexpressing Bcl-2 accumulated higher levels of W-188 than the vector control cells. These findings are consistent with the hypothesis that W-188 may counteract the protective effects of Bcl-2 mediated at both the mitochondria as well as the nucleus.

Bcl-2 = experiment: Expression of Bcl-2 protein in HL-60-Bcl-2 cells; format: cell-based, human; conditions: W-188 + etoposide / chemotherapeutic drugs, in vitro
mice = experiment: Histopathological analysis of internal organs after xenograft treatment; format: in vivo, nude mice; conditions: radiation + W-188 200 mg/kg; thirty days after treatment
Experimental: Thirty days after treatment, three mice that were given radiation+W-188 200 mg/kg (the optimal treatment in this experiment) were sacrificed and internal organs removed and processed for histopathological analysis by a board-certified pathologist at a commercial lab.

LY-ar cells [1] = experiment: Radiation-induced DNA fragmentation in LY-ar cells; format: cell-based, murine; conditions: γ-radiation in the presence of W-188; FIG. 10
Experimental: Additional studies were performed to determine if W-188 could also sensitize cells that naturally express high levels of Bcl-2. Clones were isolated from the murine B cell lymphoma, LY, that naturally express low levels of Bcl-2 (LY-as) or high levels (LY-ar), as described previously (Mirkovic, N., et al., Oncogene, 1997, 15:1461).
(§3) LY-ar was highly resistant to apoptosis induced by y-radiation. […] The apparent selective effects of W-188 may be due to the preferential intracellular accumulation of porphyrin compounds in transformed cells as opposed to normal cells reported previously (Bugelski, P. J., et al., Cancer Res., 1981, 41:4606).

[2] = Cytotoxicity to normal venous endothelial cells (MTT dye reduction assay); format: cell-based, human; conditions: human, normal venous endothelial cells, 6 h
[3] = test system: Normal human venous endothelial cells; experiment: as above; format: cell-based
LY-ar cells [4] = experiment: 10 day colony formation assay, LY-ar; format: cell-based, murine; conditions: not shown
From the text: as §3

AP24 = experiment: Etoposide-induced activation of AP24 (AAPVase) in HL-60 and PW leukemia lines; format: cell-based, human; conditions: for AP24 Activity (AAPVase, nmol/mg/hr): etoposide 50 μM + W-188 5 μg/ml, 3 h
HL-60 neo cells = experiment: DNA fragmentation (release of 3H-labeled DNA fragments) in vector control HL-60 neo cells; format: cell-based, human; conditions: neo cell lines (HL-60 neo, PW neo); compound added to inducers
Experimental: The present study evaluated the ability of W-188 to sensitize Bcl-2-overexpressing cells to induce apoptosis. The human myelogenous leukemia, HL-60, and the human B cell leukemia, PW, normally express very low levels of Bcl-2. As a model system, W-188 and various analogs and derivatives were tested in normal HL-60 and PW cells and in Bcl-2-transfected HL-60 and PW cells that overexpress high levels of Bcl-2 (see Gilbert et al., J. Cell Physiol., 1996, 171:299).
As depicted in FIG. 4, HL-60 cells (Panel A) and PW cells (Panel B) cells were exposed to various apoptosis inducers: TNF at 5 ng/ml; etoposide at 20 μM; and UV at 0.08 J/cm^2. The release of 3H-labeled DNA fragments was measured after 5 h. Normal HL-60 and PW cells were equally sensitive to apoptosis inducers as compared with cells that were transfected with vector encoding neomycin resistance (HL-60 neo and PW neo) only. […] W-188 alone was nontoxic. The addition of W-188 to the neo cell lines caused a 1.5-2 fold increase in DNA fragmentation in response to the various apoptosis inducers.

bFGF-treated U937 cells = experiment: DNA fragmentation in bFGF-treated U937 cells; format: cell-based; conditions: 1 ng/ml bFGF 20 h pretreatment; FIG. 9
Experimental: Another means by which cells may evade apoptosis is by treatment with various growth factors. To assess the ability of W-188 to reverse the apoptosis resistance induced by growth factors, U937 cells were treated ±1 ng/ml basic fibroblast growth factor (bFGF) for 20 h, then exposed to etoposide or TNF and DNA fragmentation measured.

HL-60-Bcl-2 cells = experiment: 10 day colony formation assay, HL-60-Bcl-2; format: cell-based, human; conditions: not shown
From the text: as §3

[5] = Body weight of RIF-1 tumor bearing mice
From the text: Groups of five mice each were inoculated s.c. with RIF-1 cells. The tumors were allowed to grow for 12 days to a size of 0.5 cm diameter, which was designated day 0. […] The mice were weighed and the tumor size measured every day.

[6] = test system: Nuclei from HL-60 Bcl-2 cells; experiment: AP24-induced DNA fragmentation in nuclei isolated from pretreated cells; format: cell-based, human; conditions: for % DNA Fragmentation: cells incubated with W-188 5 μg/ml 4 hr, 20 hr assay
From the text: Nuclei isolated from HL-60-Bcl-2 cells were resistant to AP24-induced DNA fragmentation, as expected (Wright, S. C., et al., Cancer Res., 1998, 58:5570).

overexpression of Bcl-2 = experiment: Comparison with compounds reported to counteract Bcl-2; format: cell-based; conditions: at 2.5 [M; data not shown
From the text: W-188 was then compared to other compounds previously reported to counteract Bcl-2 (Marchetti, P., et al., J. Immunol., 1996, 157:4830; Hirsch, T., et al., Exp. Cell Res., 1998, 241:426).

PW cells = experiment: Subcellular distribution of W-188 in PW cells (absorbance at 380 nm); format: in vitro ADME, human
Experimental: as §1, §2

With `CCC1=C(C)C(/C=C2\NC(=O)C(C)=C2CC)=NC/1=C\c1[nH]c(/C=C2\NC(=O)C(C)=C2CC)c(C)c1CC` [W-188, etiobiliverdin-IV] the “W-188 (μg/mg protein), Cytosol” value (HL-60 cells; HL-60 Bcl-2) was 0.25 μg/mg protein, the “W-188 (μg/mg protein), Mitochondria” value (HL-60 cells; HL-60 Bcl-2) was 10.0 μg/mg protein and the “W-188 (μg/mg protein), Nuclei” value (HL-60 cells; HL-60 Bcl-2) was 186 μg/mg protein. The “W-188 (μg/mg protein), Cytosol” value (HL-60 cells; HL-60 neo) was 0 μg/mg protein, the “W-188 (μg/mg protein), Mitochondria” value (HL-60 cells; HL-60 neo) was 3.3 μg/mg protein and the “W-188 (μg/mg protein), Nuclei” value (HL-60 cells; HL-60 neo) was 100 μg/mg protein. The “Expression of Bcl-2 protein” value (Bcl-2) was “did not downregulate the expression of Bcl-2 protein”, the “Histopathology of heart, lung, liver, spleen, kidney, stomach, intestine” value (mice) was “All tissues examined were found to be normal” and the “Radiation-induced DNA fragmentation” value (LY-ar cells [1]) was “underwent DNA fragmentation at levels equal to or exceeding that of LY-as treated with radiation”. It also gave a cytotoxicity at 6 h, 25 μg/mL ([2]; W-188 25 μg/mL, etoposide 0 μM) of 7 ± 1.5%, a cytotoxicity at 6 h, 50 μg/mL ([2]; W-188 50 μg/mL, etoposide 0 μM) of 22 ± 2% and a cytotoxicity at 6 h, 25 μg/mL ([2]; YW-200 0.01 μM + W-188 25 μg/mL) of 38 ± 4.9%. The cytotoxicity at 6 h, 50 μg/mL ([2]; YW-200 0.01 μM + W-188 50 μg/mL) was 59 ± 2.2%, the cytotoxicity at 6 h, 25 μg/mL ([2]; etoposide 100 μM + W-188 25 μg/mL) was 11 ± 1.5% and the cytotoxicity at 6 h, 50 μg/mL ([2]; etoposide 100 μM + W-188 50 μg/mL) was 21 ± 1.6%. For the same compound, the “Effect on toxic effects of etoposide on normal cells” value [3] was “did not increase the toxic effects of etoposide”, the “Augmentation of killing of endothelial cells by etoposide or YW-200” value ([3]; W-188 at concentrations as high as 50 μg/mL) was “did not augment the killing of endothelial cells by etoposide or YW-200” and the “Sensitization to cell death mediated by etoposide and chlorambucil” value (LY-ar cells [4]) was “sensitized HL-60-Bcl-2 and LY-ar cells to cell death mediated by etoposide and chlorambucil”. The “Activation of AP24 (in words)” value (AP24; HL-60-Bcl-2 and PW-Bcl-2 exposed to apoptosis inducers) was “did not activate AP24 unless they were also treated with W-188”, the “AP24 Activity (AAPVase, nmol/mg/hr)” value (AP24; HL-60 Bcl-2) was 124 nmol/mg/h and the “AP24 Activity (AAPVase, nmol/mg/hr)” value (AP24; PW Bcl-2) was 129 nmol/mg/h. The “Increase in DNA fragmentation in response to apoptosis inducers” value (HL-60 neo cells) was 1.5-2 fold, the “Reversal of bFGF-induced resistance to etoposide or TNF-induced DNA fragmentation” value (bFGF-treated U937 cells) was “completely reversed resistance to apoptosis” and the “Sensitization to cell death mediated by etoposide and chlorambucil” value (HL-60-Bcl-2 cells) was “sensitized HL-60-Bcl-2 and LY-ar cells to cell death mediated by etoposide and chlorambucil”. The Body weight ([5]; W-188 + Dox 5 mg/kg, FIG. 12) was “did lose weight, but not much more than those mice treated with Dox 5 mg/kg alone”, the Body weight ([5]; W-188 alone, data not shown) was “did not show any decrease in weight” and the “% DNA Fragmentation” value ([6]; AP24 dilution 1:10) was 44 ± 4.8%. For the same compound, the “% DNA Fragmentation” value ([6]; AP24 dilution 1:20) was 19 ± 1.0%, the “Sensitivity of isolated nuclei to AP24-induced DNA fragmentation (in words)” value ([6]; pretreatment of HL-60-Bcl-2 cells) was “restored the sensitivity of the isolated nuclei to AP24-induced DNA fragmentation” and the “Reversal of the effect of overexpression of Bcl-2” value (overexpression of Bcl-2) was “completely reversed the effect of overexpression of Bcl-2”. The “W-188 (μg/mg protein), Cytosol” value (PW cells; PW Bcl-2) was 0 μg/mg protein, the “W-188 (μg/mg protein), Mitochondria” value (PW cells; PW Bcl-2) was 4.5 μg/mg protein and the “W-188 (μg/mg protein), Nuclei” value (PW cells; PW Bcl-2) was 166 μg/mg protein. The “W-188 (μg/mg protein), Cytosol” value (PW cells; PW neo) was 0 μg/mg protein, the “W-188 (μg/mg protein), Mitochondria” value (PW cells; PW neo) was 2.5 μg/mg protein and the “W-188 (μg/mg protein), Nuclei” value (PW cells; PW neo) was 133 μg/mg protein.
